Source: patent publication US20030176314A1, “Compounds for the treatment of pain” (priority 2001, published 2003)

Assays:
[1] = target: T1, human α1D adrenergic receptor (Homo sapiens, UniProt P25100); test: Binding at human α1D adrenergic receptor; conditions: Table 8; read-out: hα1D Ki
T1 construct: host or cells: LM(tk-) cells, line L-α1A
T1 sequence (P25100 1-572): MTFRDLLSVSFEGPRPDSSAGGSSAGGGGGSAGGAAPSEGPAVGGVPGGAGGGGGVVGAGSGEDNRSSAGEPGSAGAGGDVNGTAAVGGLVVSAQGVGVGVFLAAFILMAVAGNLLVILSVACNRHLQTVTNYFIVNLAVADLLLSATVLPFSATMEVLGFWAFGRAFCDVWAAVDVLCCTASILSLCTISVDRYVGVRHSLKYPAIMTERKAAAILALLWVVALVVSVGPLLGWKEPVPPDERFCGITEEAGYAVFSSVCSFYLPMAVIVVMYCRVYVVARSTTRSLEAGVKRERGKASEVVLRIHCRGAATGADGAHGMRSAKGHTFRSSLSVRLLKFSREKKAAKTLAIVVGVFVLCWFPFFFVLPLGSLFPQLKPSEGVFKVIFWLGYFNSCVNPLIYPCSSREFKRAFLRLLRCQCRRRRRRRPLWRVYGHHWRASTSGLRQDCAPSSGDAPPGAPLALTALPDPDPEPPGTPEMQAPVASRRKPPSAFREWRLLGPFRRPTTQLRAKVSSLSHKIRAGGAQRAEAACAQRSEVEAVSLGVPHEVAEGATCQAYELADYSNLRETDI
Text: (§1) α1 Human Adrenergic Receptors: To determine the binding of compounds to human α1 receptors, LM(tk−) cell lines stably transfected with the genes encoding the α1a, α1b, and α1d receptors were used. The nomenclature describing the α1 receptors was changed recently, such that the receptor formerly designated α1a is now designated α1d, and the receptor formerly designated α1c is now designated α1a. The cell lines expressing these receptors were deposited with the ATCC before the nomenclature change and reflect the subtype designations formerly assigned to these receptors. Thus, the cell line expressing the receptor described herein as the α1a receptor was deposited with the ATCC on Sep. […] The cell line expressing receptor described herein as the α1d receptor was deposited with the ATCC on Sep. […] The cell line expressing the α1b receptor is designated L-α1B, and was deposited on Sep.
(§2) The binding affinity (Ki) of these compounds were tested according to the protocols described herein at the following receptors; human α1A, α1B, α1D, α2A, α2B, and α2C adrenergic receptors; human Y1, Y2, Y4, and Y5 receptors; and N-Methyl-D-aspartic acid (NMDA) receptor channels. The binding interactions of these compounds were additionally tested at the norepinephrine (NE) transporter (NE uptake) and serotonin (5-hydroxytryptamine (5HT)) transporter (5HT uptake) according to protocols described herein

rat NPFF2 receptor = target: T2, rat NPFF2 receptor (Rattus norvegicus, UniProt Q9EQD2); test: Functional assay (agonist potency, intrinsic activity) at cloned rat NPFF2 receptor; format: cell-based; conditions: Table 7, intrinsic activity
T2 construct: The full-length NPFF2 was amplified from rat spinal cord cDNA; expressed in transfected cells; host or cells: not given

[2] = target: T3, human α1B adrenergic receptor (Homo sapiens, UniProt P35368); test: Binding at human α1B adrenergic receptor; conditions: Table 8; read-out: hα1B Ki
T3 construct: host or cells: LM(tk-) cells, line L-α1B
T3 sequence (P35368 1-520): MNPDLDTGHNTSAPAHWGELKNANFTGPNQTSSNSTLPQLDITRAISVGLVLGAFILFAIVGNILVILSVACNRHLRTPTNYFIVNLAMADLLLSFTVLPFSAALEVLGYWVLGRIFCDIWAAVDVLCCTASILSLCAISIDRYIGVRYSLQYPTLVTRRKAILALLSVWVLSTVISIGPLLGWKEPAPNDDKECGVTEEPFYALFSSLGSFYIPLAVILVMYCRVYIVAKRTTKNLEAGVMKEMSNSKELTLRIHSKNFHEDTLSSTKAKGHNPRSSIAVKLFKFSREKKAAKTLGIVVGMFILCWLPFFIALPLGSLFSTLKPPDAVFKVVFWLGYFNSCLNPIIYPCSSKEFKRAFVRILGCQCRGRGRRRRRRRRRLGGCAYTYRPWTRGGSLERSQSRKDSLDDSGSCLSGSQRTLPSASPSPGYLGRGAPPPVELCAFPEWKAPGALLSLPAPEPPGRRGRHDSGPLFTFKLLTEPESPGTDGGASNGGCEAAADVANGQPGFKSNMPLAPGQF
Text: as §1, §2

[3] = target: T4, human α1A adrenergic receptor (Homo sapiens, UniProt P35348); test: Binding at human α1A adrenergic receptor; conditions: Table 8; read-out: hα1A Ki
T4 construct: host or cells: LM(tk-) cells, line L-α1C
T4 sequence (P35348 1-466): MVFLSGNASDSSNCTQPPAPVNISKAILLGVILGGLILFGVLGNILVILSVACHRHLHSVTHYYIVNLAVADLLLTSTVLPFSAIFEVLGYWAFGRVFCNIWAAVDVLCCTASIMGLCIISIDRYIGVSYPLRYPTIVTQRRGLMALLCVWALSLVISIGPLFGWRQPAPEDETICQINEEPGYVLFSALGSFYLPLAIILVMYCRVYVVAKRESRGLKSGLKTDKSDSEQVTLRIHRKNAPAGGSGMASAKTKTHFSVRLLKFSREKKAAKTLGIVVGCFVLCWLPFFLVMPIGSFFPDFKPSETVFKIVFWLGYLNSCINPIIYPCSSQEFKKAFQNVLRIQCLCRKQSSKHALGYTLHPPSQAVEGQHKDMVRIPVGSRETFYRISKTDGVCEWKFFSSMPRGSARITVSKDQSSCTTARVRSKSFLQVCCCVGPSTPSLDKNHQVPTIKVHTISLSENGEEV
Text: as §1, §2

[4] = target: T5, serotonin (5HT) transporter (Rattus norvegicus, UniProt P31652); test: Binding at native serotonin transporter (5HT uptake); conditions: Table 8
T5 construct: evaluated at native, tissue-derived transporters; from tissue
Procedure: (§3) Transporters: The binding properties of compounds were evaluated at native, tissue-derived transporters, namely serotonin (5HT) transporter and norepinephrine (NE) transporter, according to protocols described in Owens (1997), the disclosure of which is hereby incorporated by reference in its entirety into this application.
as §2

human Y5 receptor = target: T6, human Y5 receptor (Homo sapiens, UniProt Q15761); test: Binding at human neuropeptide Y Y5 receptor; conditions: Table 8; read-out: hY5 Ki
T6 construct: host or cells: L cells, line L-hY5-7
T6 sequence (Q15761 1-445): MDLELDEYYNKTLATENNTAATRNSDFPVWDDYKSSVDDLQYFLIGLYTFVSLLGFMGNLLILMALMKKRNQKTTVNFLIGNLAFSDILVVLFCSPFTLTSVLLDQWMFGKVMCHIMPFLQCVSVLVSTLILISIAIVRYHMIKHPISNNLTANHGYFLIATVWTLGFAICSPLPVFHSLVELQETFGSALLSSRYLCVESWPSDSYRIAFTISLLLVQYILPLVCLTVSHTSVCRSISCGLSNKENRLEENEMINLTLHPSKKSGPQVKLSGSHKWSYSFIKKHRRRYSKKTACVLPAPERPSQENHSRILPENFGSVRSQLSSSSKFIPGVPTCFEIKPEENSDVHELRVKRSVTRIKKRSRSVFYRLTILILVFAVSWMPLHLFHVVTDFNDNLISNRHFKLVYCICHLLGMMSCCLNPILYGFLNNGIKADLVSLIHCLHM
Text: (§4) Neuropeptide receptors: Stably transfected cell lines which may be used for binding experiments include, for the Y1 receptor, 293-hY1-5 (deposited Jun. 4, 1996, under ATCC Accession No. CRL-12121); for the Y2 receptor, 293-hY2-10 (deposited Jan. 27, 1994, under ATCC Accession No. CRL-11837); for the Y4 receptor, L-hY4-3 (deposited Jan. 11, 1995, under ATCC Accession No. CRL 11779); and for the Y5 receptor, L-hY5-7 (deposited Nov. 15, 1995, under ATCC Accession No. CRL 11995).
(§5) Binding assays using the NPY receptors may be carried out according to the procedures described in U.S. Pat. No. 5,602,024, the disclosure of which is hereby incorporated by reference in its entirety into this application.
as §2

[5] = target: T7, norepinephrine (NE) transporter (Rattus norvegicus, UniProt Q63380); test: Binding at native norepinephrine transporter (NE uptake); conditions: Table 8
T7 construct: evaluated at native, tissue-derived transporters; from tissue
Procedure: as §3, §2

human Y4 receptor = target: T8, human Y4 receptor (Homo sapiens, UniProt P50391); test: Binding at human neuropeptide Y Y4 receptor; conditions: Table 8; read-out: hY4 Ki
T8 construct: host or cells: L cells, line L-hY4-3
Text: as §4, §5, §2

human Y2 receptor = target: T9, human Y2 receptor (Homo sapiens, UniProt P49146); test: Binding at human neuropeptide Y Y2 receptor; conditions: Table 8; read-out: hY2 Ki
T9 construct: host or cells: 293 cells, line 293-hY2-10
T9 sequence (P49146 1-381): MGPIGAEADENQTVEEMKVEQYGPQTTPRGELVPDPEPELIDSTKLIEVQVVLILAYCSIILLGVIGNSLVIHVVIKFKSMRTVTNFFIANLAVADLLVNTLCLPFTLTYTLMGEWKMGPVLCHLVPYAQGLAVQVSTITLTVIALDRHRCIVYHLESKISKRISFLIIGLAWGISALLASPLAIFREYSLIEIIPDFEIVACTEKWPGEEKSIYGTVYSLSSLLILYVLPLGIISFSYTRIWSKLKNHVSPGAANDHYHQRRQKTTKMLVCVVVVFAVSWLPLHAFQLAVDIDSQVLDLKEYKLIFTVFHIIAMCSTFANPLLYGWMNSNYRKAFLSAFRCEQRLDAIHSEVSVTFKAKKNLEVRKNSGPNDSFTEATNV
Text: as §4, §5, §2

human Y1 receptor = target: T10, human Y1 receptor (Homo sapiens, UniProt P25929); test: Binding at human neuropeptide Y Y1 receptor; conditions: Table 8; read-out: hY1 Ki
T10 construct: host or cells: 293 cells, line 293-hY1-5
T10 sequence (P25929 1-384): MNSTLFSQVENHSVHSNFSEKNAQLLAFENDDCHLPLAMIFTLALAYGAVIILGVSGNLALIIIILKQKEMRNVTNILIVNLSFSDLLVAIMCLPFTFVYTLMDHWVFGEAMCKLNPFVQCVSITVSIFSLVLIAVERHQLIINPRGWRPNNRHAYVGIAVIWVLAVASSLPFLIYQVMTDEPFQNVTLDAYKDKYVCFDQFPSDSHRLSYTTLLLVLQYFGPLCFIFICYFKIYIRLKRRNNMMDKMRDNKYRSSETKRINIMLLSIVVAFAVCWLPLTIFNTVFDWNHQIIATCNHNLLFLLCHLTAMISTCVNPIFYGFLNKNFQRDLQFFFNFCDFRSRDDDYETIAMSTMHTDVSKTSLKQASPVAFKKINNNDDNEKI
Text: as §4, §5, §2

T8 sequence (P50391 whole entry): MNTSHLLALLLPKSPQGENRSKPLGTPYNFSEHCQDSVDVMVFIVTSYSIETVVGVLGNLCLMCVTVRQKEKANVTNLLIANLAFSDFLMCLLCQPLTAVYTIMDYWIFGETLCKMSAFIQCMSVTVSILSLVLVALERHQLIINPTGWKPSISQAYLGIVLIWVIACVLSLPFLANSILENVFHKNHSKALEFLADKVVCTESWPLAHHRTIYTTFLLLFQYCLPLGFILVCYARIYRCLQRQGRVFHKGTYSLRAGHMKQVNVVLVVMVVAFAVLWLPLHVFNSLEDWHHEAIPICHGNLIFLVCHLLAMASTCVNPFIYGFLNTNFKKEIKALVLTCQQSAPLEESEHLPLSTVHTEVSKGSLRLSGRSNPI
T7 sequence (Q63380 1-617): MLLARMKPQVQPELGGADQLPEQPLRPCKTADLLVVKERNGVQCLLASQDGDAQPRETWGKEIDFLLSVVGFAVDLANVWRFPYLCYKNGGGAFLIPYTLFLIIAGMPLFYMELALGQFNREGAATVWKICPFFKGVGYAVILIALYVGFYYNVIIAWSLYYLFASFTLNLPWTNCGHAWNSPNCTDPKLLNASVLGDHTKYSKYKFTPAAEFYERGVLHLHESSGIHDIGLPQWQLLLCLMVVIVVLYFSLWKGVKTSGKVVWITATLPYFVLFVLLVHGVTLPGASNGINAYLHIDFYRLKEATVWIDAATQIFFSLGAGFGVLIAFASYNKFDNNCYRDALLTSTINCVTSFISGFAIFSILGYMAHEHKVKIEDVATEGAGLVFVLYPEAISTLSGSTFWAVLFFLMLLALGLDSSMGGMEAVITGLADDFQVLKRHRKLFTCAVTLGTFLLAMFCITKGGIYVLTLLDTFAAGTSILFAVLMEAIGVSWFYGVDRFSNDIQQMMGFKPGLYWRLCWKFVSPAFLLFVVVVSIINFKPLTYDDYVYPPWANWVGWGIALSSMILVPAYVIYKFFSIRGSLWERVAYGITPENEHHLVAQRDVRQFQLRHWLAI
T5 sequence (P31652 whole entry): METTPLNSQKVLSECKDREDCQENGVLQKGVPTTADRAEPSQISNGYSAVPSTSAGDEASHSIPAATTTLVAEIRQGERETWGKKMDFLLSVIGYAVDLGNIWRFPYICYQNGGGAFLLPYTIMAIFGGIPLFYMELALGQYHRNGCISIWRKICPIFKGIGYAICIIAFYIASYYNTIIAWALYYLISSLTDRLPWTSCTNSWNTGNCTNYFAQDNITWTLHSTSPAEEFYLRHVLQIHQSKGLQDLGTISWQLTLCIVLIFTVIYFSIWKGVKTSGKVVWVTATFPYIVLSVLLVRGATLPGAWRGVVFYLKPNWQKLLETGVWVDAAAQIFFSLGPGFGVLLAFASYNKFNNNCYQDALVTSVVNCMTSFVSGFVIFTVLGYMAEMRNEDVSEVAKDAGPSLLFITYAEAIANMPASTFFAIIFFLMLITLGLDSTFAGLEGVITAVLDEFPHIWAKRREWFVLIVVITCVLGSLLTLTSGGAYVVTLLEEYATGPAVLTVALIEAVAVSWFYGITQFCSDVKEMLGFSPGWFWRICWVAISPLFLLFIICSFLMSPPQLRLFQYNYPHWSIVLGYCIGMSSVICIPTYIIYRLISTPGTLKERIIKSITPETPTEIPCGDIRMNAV
T2 sequence (Q9EQD2 whole entry): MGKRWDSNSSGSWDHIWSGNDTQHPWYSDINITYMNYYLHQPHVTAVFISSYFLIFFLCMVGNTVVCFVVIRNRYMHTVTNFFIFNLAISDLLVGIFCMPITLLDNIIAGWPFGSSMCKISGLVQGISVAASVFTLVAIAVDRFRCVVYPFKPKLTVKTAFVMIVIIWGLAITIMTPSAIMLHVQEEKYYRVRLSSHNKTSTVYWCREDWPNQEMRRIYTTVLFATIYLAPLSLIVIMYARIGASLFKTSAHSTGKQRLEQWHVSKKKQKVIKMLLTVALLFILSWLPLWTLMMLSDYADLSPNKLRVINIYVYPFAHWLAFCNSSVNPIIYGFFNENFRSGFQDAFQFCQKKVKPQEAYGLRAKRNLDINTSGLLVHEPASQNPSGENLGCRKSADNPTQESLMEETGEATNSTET

Row | SMILES | Ki [1] [µM] | rNPFF2 IA (rat NPFF2 receptor) [% NPFF] | Ki [2] [µM] | Ki [3] [µM] | Ki [4] [µM] | Ki (human Y5 receptor) [nM] | Ki [5] [µM] | Ki (human Y4 receptor) [µM] | Ki (human Y2 receptor) [µM] | Ki (human Y1 receptor) [µM]
1 | Cc1nc(NC(=N)N)nc2ccccc12 [Compound 1001A, N-(4-methyl-2-quinazolinyl)guanidine] | 12.9 | 16 | 9.86 | 5.03 | – | – | – | – | – | –
2 | Cc1cc(NC(=N)N)nc2ccccc12 [Compound 6001A, N-(4-methyl-2-quinolinyl)guanidine] | – | – | – | – | 10.5 | 742 | 12.7 | 14.3 | > 50 | > 50
